Holding throughout (test): relative viability (nuclei count vs DMSO), 5 days (fraction); higher = more cells survive
Compound in the test “Idelalisib + Luminespib”: CC[C@H](Nc1ncnc2[nH]cnc12)c1nc2cccc(F)c2c(=O)n1-c1ccccc1 [Idelalisib] + CCNC(=O)c1noc(-c2cc(C(C)C)c(O)cc2O)c1-c1ccc(CN2CCOCC2)cc1 [Luminespib] (partner 0.01 µM)
A digest of the protocol: (§1)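 Values are medians from duplicate plates. Each reflects relative viability, defined as the nuclei count of treated wells over that of vehicle wells. Lung cancer cell lines in 1536-well plates were pin-tool dosed one day after seeding with one drug alone or with a fixed anchor-drug dose plus five library-drug doses (not always all listed) in √10 steps, then fixed, stained and imaged at 4× after 5 days.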

Compound in the test “Idelalisib + Phenformin”: CC[C@H](Nc1ncnc2[nH]cnc12)c1nc2cccc(F)c2c(=O)n1-c1ccccc1 [Idelalisib] + N=C(N)NC(=N)NCCc1ccccc1 [Phenformin] (partner 250 µM)
A digest of the protocol:
as §1

Compound in the test “Pemetrexed + Alpelisib”: Nc1nc2[nH]cc(CCc3ccc(C(=O)N[C@@H](CCC(=O)O)C(=O)O)cc3)c2c(=O)[nH]1 [Pemetrexed] + Cc1nc(NC(=O)N2CCC[C@H]2C(N)=O)sc1-c1ccnc(C(C)(C)C(F)(F)F)c1 [Alpelisib] (partner 2 µM)
A digest of the protocol: as §1

Compound in the test “Pemetrexed + Vorinostat”: Nc1nc2[nH]cc(CCc3ccc(C(=O)N[C@@H](CCC(=O)O)C(=O)O)cc3)c2c(=O)[nH]1 [Pemetrexed] + O=C(CCCCCCC(=O)Nc1ccccc1)NO [Vorinostat] (partner 1 µM)
The procedure, abridged: as §1

For EMC-BAC-2, the relative viability in the test with Idelalisib + Luminespib (first compound 0.04 µM) worked out at 1.34; in the test with Idelalisib + Luminespib (first compound 0.1265 µM), 1.24; in the test with Idelalisib + Luminespib (first compound 0.4 µM), 1.03; with Idelalisib + Luminespib (first compound 1.265 µM), 1.25; in the test with Idelalisib + Luminespib (first compound 4 µM), 1.13; in the test with Idelalisib + Phenformin (first compound 0.04 µM), 0.564. Further, the relative viability worked out at 0.517 with Idelalisib + Phenformin (first compound 0.1265 µM); 0.478 with Idelalisib + Phenformin (first compound 0.4 µM); 0.506 in the test with Idelalisib + Phenformin (first compound 1.265 µM); 0.524 in the test with Idelalisib + Phenformin (first compound 4 µM); 0.795 in the test with Pemetrexed + Alpelisib (first compound 0.002 µM); 0.676 with Pemetrexed + Alpelisib (first compound 0.006325 µM). Also, the relative viability was 0.801 in the test with Pemetrexed + Alpelisib (first compound 0.02 µM); 0.738 with Pemetrexed + Alpelisib (first compound 0.06325 µM); 0.693 with Pemetrexed + Alpelisib (first compound 0.2 µM); 0.397 with Pemetrexed + Vorinostat (first compound 0.002 µM); 0.734 with Pemetrexed + Vorinostat (first compound 0.006325 µM); 0.539 with Pemetrexed + Vorinostat (first compound 0.02 µM). Further, the relative viability is 0.402 with Pemetrexed + Vorinostat (first compound 0.06325 µM) and 0.256 in the test with Pemetrexed + Vorinostat (first compound 0.2 µM).

NCI-H1355: the relative viability stood at 0.672 in the test with Idelalisib + Luminespib (first compound 0.04 µM); 0.779 with Idelalisib + Luminespib (first compound 0.1265 µM); 0.531 in the test with Idelalisib + Luminespib (first compound 0.4 µM); 0.628 with Idelalisib + Luminespib (first compound 1.265 µM); 0.602 with Idelalisib + Luminespib (first compound 4 µM); 0.476 with Idelalisib + Phenformin (first compound 0.04 µM). Also, the relative viability with Idelalisib + Phenformin (first compound 0.1265 µM) was 0.502; with Idelalisib + Phenformin (first compound 0.4 µM) it was 0.364; with Idelalisib + Phenformin (first compound 1.265 µM) it was 0.448; with Idelalisib + Phenformin (first compound 4 µM) it was 0.411; with Pemetrexed + Alpelisib (first compound 0.002 µM), 0.805; with Pemetrexed + Alpelisib (first compound 0.006325 µM), 0.768. Also, the relative viability amounted to 0.822 in the test with Pemetrexed + Alpelisib (first compound 0.02 µM); 0.843 in the test with Pemetrexed + Alpelisib (first compound 0.06325 µM); 0.858 with Pemetrexed + Alpelisib (first compound 0.2 µM); 0.526 with Pemetrexed + Vorinostat (first compound 0.002 µM); 0.603 in the test with Pemetrexed + Vorinostat (first compound 0.006325 µM); 0.667 in the test with Pemetrexed + Vorinostat (first compound 0.02 µM). The relative viability with Pemetrexed + Vorinostat (first compound 0.06325 µM) was 0.599; in the test with Pemetrexed + Vorinostat (first compound 0.2 µM), 0.62.

With NCI-H1944, the relative viability was found to be 0.809 with Idelalisib + Luminespib (first compound 0.04 µM); 0.621 with Idelalisib + Luminespib (first compound 0.1265 µM); 0.609 with Idelalisib + Luminespib (first compound 0.4 µM); 0.636 in the test with Idelalisib + Luminespib (first compound 1.265 µM); 0.532 with Idelalisib + Luminespib (first compound 4 µM); 0.237 with Idelalisib + Phenformin (first compound 0.04 µM). The relative viability with Idelalisib + Phenformin (first compound 0.1265 µM) is 0.204; in the test with Idelalisib + Phenformin (first compound 0.4 µM) it was 0.158; with Idelalisib + Phenformin (first compound 1.265 µM), 0.187; with Idelalisib + Phenformin (first compound 4 µM), 0.175; with Pemetrexed + Alpelisib (first compound 0.002 µM) it was 0.674; with Pemetrexed + Alpelisib (first compound 0.006325 µM), 0.751. Further, the relative viability with Pemetrexed + Alpelisib (first compound 0.02 µM) is 0.869; in the test with Pemetrexed + Alpelisib (first compound 0.06325 µM), 0.789; with Pemetrexed + Alpelisib (first compound 0.2 µM), 0.766; in the test with Pemetrexed + Vorinostat (first compound 0.002 µM), 0.43; with Pemetrexed + Vorinostat (first compound 0.006325 µM), 0.487; with Pemetrexed + Vorinostat (first compound 0.02 µM), 0.565. The relative viability stood at 0.592 with Pemetrexed + Vorinostat (first compound 0.06325 µM) and 0.531 with Pemetrexed + Vorinostat (first compound 0.2 µM).

Turning to ABC-1, the relative viability with Idelalisib + Luminespib (first compound 0.04 µM) was determined as 0.466; in the test with Idelalisib + Luminespib (first compound 0.1265 µM) it was 0.643; in the test with Idelalisib + Luminespib (first compound 1.265 µM), 0.521; with Idelalisib + Luminespib (first compound 4 µM), 0.497; with Idelalisib + Phenformin (first compound 0.04 µM), 0.243; with Idelalisib + Phenformin (first compound 0.1265 µM), 0.254. The relative viability with Idelalisib + Phenformin (first compound 0.4 µM) is 0.231; in the test with Idelalisib + Phenformin (first compound 1.265 µM), 0.267; with Idelalisib + Phenformin (first compound 4 µM), 0.217; with Pemetrexed + Alpelisib (first compound 0.002 µM), 1.13; in the test with Pemetrexed + Alpelisib (first compound 0.006325 µM) it was 0.937; in the test with Pemetrexed + Alpelisib (first compound 0.02 µM), 1.28. The relative viability with Pemetrexed + Alpelisib (first compound 0.06325 µM) was found to be 1.03; in the test with Pemetrexed + Alpelisib (first compound 0.2 µM), 0.87; with Pemetrexed + Vorinostat (first compound 0.002 µM), 1.07; in the test with Pemetrexed + Vorinostat (first compound 0.006325 µM) it was 1.68; with Pemetrexed + Vorinostat (first compound 0.02 µM), 1.18; in the test with Pemetrexed + Vorinostat (first compound 0.06325 µM) it was 1.33. Moreover, the relative viability with Pemetrexed + Vorinostat (first compound 0.2 µM) amounted to 1.1.

For HOP-62, the relative viability with Idelalisib + Luminespib (first compound 0.04 µM) came to 1.03; in the test with Idelalisib + Luminespib (first compound 0.1265 µM), 0.875; with Idelalisib + Luminespib (first compound 0.4 µM), 0.83; with Idelalisib + Luminespib (first compound 1.265 µM), 1.08; with Idelalisib + Luminespib (first compound 4 µM), 0.926; with Idelalisib + Phenformin (first compound 0.04 µM), 0.558. The relative viability stood at 0.656 in the test with Idelalisib + Phenformin (first compound 0.1265 µM); 0.589 in the test with Idelalisib + Phenformin (first compound 0.4 µM); 0.672 with Idelalisib + Phenformin (first compound 1.265 µM); 0.654 with Idelalisib + Phenformin (first compound 4 µM); 0.842 in the test with Pemetrexed + Alpelisib (first compound 0.002 µM); 0.868 in the test with Pemetrexed + Alpelisib (first compound 0.006325 µM). Besides, the relative viability turned out to be 0.896 with Pemetrexed + Alpelisib (first compound 0.02 µM); 0.847 with Pemetrexed + Alpelisib (first compound 0.06325 µM); 0.957 with Pemetrexed + Alpelisib (first compound 0.2 µM); 0.387 in the test with Pemetrexed + Vorinostat (first compound 0.002 µM); 0.581 in the test with Pemetrexed + Vorinostat (first compound 0.006325 µM); 0.721 in the test with Pemetrexed + Vorinostat (first compound 0.02 µM). Also, the relative viability with Pemetrexed + Vorinostat (first compound 0.06325 µM) came to 0.626; with Pemetrexed + Vorinostat (first compound 0.2 µM) it was 0.547.

NCI-H2009: the relative viability with Idelalisib + Luminespib (first compound 0.04 µM) came out at 1.01; with Idelalisib + Luminespib (first compound 0.1265 µM), 1.04; in the test with Idelalisib + Luminespib (first compound 0.4 µM), 1.02; with Idelalisib + Luminespib (first compound 1.265 µM) it was 1.11; in the test with Idelalisib + Luminespib (first compound 4 µM), 1.03; with Idelalisib + Phenformin (first compound 0.04 µM), 0.496. Further, the relative viability is 0.483 in the test with Idelalisib + Phenformin (first compound 0.1265 µM); 0.474 in the test with Idelalisib + Phenformin (first compound 0.4 µM); 0.536 in the test with Idelalisib + Phenformin (first compound 1.265 µM); 0.491 with Idelalisib + Phenformin (first compound 4 µM); 1.15 with Pemetrexed + Alpelisib (first compound 0.002 µM); 1.13 in the test with Pemetrexed + Alpelisib (first compound 0.006325 µM). For the same cell line, the relative viability in the test with Pemetrexed + Alpelisib (first compound 0.02 µM) was determined as 1.22; with Pemetrexed + Alpelisib (first compound 0.06325 µM) it was 1.12; with Pemetrexed + Alpelisib (first compound 0.2 µM), 1.08; with Pemetrexed + Vorinostat (first compound 0.002 µM) it was 0.631; in the test with Pemetrexed + Vorinostat (first compound 0.006325 µM), 0.7; with Pemetrexed + Vorinostat (first compound 0.02 µM), 0.776. The values for the relative viability with Pemetrexed + Vorinostat (first compound 0.06325 µM) and with Pemetrexed + Vorinostat (first compound 0.2 µM) were 0.681 and 0.654, respectively.

The values above are taken from the supplement of paper PMC10307832.
